Test results from patent US9351981B2, “Use of PKC-iota inhibitors for the treatment of breast cancer” (UNIVERSITY OF SOUTH FLORIDA, priority 2007, dated 2016).

Assays:
[1] = system: MDA-MB-468 breast cancer cells; assay: Proliferation of MDA-MB-468 breast cancer cells after ICA-1, viable cell count by Trypan blue exclusion; type: cell-based, human; settings: vs vehicle control
Method: Five thousand cells were plated in T-25 cm^2 flasks. Twenty-four hours post vehicle control or ICA-1 treatment, the number of viable cells was counted by Trypan blue exclusion. Data shown are the mean+/−SD of two independent experiments.
Briefly, MDA-MB-468 breast cancer cells were treated with 0.1 μM or 0.5 μM ICA-1. Cell viability and cell count were determined 24 hours following addition of either vehicle control or ICA-1.

IKK-α/IKK-β = assay: Phosphorylation of IKK-α/IKK-β; type: cell-based
cancer cells [2] = assay: Chromatin condensation, DAPI staining of the nucleus; type: cell-based
Source text: (§1) In addition, the present inventors have discovered that ICA-1 promotes apoptosis of cancer cells.

cancer cells [3] = assay: DNA fragmentation, TUNEL assay; type: cell-based
Source text: as §1

PKC-ι = molecular target: T1, PKC-ι (Homo sapiens, UniProt P41743); assay: Inhibition of PKC-ι activity; type: biochemical
T1 sequence (P41743 10-596 limits assumed): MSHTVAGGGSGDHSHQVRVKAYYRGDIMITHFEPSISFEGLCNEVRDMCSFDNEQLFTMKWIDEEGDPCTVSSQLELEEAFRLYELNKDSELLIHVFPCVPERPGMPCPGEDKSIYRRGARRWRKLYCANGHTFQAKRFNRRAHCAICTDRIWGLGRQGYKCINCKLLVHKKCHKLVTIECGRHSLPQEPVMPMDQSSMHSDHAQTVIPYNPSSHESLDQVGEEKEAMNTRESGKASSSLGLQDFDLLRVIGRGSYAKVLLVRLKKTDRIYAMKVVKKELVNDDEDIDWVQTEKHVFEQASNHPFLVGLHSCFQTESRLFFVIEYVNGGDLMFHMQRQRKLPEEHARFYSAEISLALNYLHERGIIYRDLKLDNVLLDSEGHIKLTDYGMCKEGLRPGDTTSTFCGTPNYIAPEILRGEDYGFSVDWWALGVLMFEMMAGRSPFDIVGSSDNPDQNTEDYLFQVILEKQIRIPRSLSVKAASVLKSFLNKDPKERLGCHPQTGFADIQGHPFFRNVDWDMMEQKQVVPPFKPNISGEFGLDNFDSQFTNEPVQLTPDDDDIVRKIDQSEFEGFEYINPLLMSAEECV

Question: For NC(=O)c1ncn(C2CC(COP(=O)(O)O)C(O)C2O)c1N (stereo not drawn) [ICA-1, 1H-imidazole-4-carboxamide,5-amino-1-[2,3-dihydroxy-4-[(phosphonooxy)methyl]cyclopentyl]-,[1R-(1α, 2β, 3β, 4α)]], which “decrease of proliferation of MDA-MB-468 cells” value ([1]; 0.1 μM ICA-1, 24 hours post-treatment) is on record?
Answer: 77%

Question: And the “decrease of proliferation of MDA-MB-468 cells” value ([1]; 0.5 μM ICA-1, 24 hours post-treatment, P=0.05)?
Answer: 50%

Question: And the “phosphorylation of IKK-α/IKK-β” value (IKK-α/IKK-β)?
Answer: inhibits the phosphorylation

Question: What about the “chromatin condensation in cancer cells” value (cancer cells [2]) of the same compound?
Answer: induced chromatin condensation

Question: What about the “DNA fragmentation in cancer cells” value (cancer cells [3]) of the same compound?
Answer: induced DNA fragmentation

Question: What about the “activity of PKC-ι” value (PKC-ι) of the same compound?
Answer: potently inhibits
